Measurements from patent US9988400B2 (Genentech, Inc., priority 2013, dated 2018).

Molecular target: T1, HEK cells stably transfected with tetracycline inducible hNR1 and hNR2A (Homo sapiens, UniProt Q05586+Q12879)
T1 construct: expressed in transfected cells; host or cells: HEK cells, stably transfected, tetracycline/doxycycline inducible
Assay: Assay 1: Cell-Based Assay, cytosolic calcium response to positive allosteric modulators (with 30 μM glycine and 300 nM L-glutamate, EC30)
Conditions: Table 2; for EC50: cytosolic calcium response, with 30 μM glycine and 300 nM L-glutamate (EC30), — = no plateau was reached; for Max %: responses scaled relative to 100 μM L-glutamate maximal response (100%) and 0 μM L-glutamate (0%)
In short: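 Cells induced 24 h with 7.5 μg mL^−1 doxycycline plus 500 μM (+)-ketamine, loaded 60 min at 37 °C with calcium dye in Mg-free HBSS (1.8 mM Ca, probenecid, 10 μM (+)-ketamine, pH 7.15). Peak RFU over 5 min after compound addition, scaled to 100 μM L-glutamate (100%) and 0 μM (0%); four-parameter Hill fit for EC50, max % if no plateau.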

T1 sequence (Q12879 23-1464, other chains not shown): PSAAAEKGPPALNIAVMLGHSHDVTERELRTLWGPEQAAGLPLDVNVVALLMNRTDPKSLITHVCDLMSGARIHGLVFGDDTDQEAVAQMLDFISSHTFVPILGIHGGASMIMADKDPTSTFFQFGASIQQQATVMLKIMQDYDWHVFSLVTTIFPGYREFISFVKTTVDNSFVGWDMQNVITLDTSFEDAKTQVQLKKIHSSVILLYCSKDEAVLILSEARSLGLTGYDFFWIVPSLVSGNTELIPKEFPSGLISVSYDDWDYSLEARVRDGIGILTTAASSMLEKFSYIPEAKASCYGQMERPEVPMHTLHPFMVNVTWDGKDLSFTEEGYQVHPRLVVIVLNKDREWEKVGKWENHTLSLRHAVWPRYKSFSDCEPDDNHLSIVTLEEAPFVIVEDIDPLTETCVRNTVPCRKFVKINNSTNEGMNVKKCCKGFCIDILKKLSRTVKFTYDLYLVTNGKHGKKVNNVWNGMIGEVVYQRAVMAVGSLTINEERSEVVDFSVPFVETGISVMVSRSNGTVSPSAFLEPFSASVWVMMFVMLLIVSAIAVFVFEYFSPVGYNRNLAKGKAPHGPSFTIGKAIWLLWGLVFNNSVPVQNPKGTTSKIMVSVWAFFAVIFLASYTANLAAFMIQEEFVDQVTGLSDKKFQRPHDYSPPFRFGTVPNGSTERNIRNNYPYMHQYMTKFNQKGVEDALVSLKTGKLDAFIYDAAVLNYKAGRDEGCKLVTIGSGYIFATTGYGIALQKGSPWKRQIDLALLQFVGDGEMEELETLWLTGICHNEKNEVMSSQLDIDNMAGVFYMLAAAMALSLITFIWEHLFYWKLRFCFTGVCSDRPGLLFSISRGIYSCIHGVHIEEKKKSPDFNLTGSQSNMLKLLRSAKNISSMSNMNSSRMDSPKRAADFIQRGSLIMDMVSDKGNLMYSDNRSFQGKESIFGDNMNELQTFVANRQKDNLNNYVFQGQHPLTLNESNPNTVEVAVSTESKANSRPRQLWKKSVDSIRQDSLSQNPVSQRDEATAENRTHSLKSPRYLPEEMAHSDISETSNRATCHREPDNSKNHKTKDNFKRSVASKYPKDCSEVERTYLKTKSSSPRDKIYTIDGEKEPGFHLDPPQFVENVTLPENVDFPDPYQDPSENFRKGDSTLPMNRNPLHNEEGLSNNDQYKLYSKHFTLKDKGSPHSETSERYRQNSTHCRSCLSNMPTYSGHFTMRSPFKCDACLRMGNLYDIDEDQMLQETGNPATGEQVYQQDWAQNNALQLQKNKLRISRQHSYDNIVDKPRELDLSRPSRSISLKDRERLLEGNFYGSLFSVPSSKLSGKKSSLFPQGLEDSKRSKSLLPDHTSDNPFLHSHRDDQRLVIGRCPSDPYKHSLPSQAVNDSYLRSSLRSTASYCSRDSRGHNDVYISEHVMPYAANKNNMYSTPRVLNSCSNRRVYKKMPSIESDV

EC50	Max %	Structure (SMILES)
1.3 µM	153%	C=Cc1c(C)sc2nc(CN(CC)c3ccc(F)cc3)cc(=O)n12 [Example 5.53, 7-((ethyl(4-fluorophenyl)amino)methyl)-2-methyl-3-vinyl-5H-thiazolo[3,2-a]pyrimidin-5-one]
51.5 µM	129%	CCN(Cc1cc(=O)n2c(Br)c(C3CC3)sc2n1)c1ccc(F)cc1 [Example 5.54, 3-bromo-2-cyclopropyl-7-[(N-ethyl-4-fluoro-anilino)methyl]thiazolo[3,2-a]pyrimidin-5-one]
4.7 µM	111%	CCN(Cc1cc(=O)n2c(-c3cc(F)cc(F)c3)c(C)sc2n1)c1ccc(F)cc1 [Example 5.55, 3-(3,5-difluorophenyl)-7-[(N-ethyl-4-fluoro-anilino)methyl]-2-methyl-thiazolo[3,2-a]pyrimidin-5-one]
	110%	CCN(Cc1cc(=O)n2c(-c3ccn(C)n3)c(C)sc2n1)c1ccc(F)cc1 [Example 5.56, 7-[(N-ethyl-4-fluoro-anilino)methyl]-2-methyl-3-(1-methylpyrazol-3-yl)thiazolo[3,2-a]pyrimidin-5-one]
6.4 µM	120%	CCN(Cc1cc(=O)n2c(-c3ccnc(N)c3)c(C)sc2n1)c1ccc(F)cc1 [Example 5.57, 3-(2-amino-4-pyridyl)-7-[(N-ethyl-4-fluoro-anilino)methyl]-2-methyl-thiazolo[3,2-a]pyrimidin-5-one]
5.1 µM	120%	CCN(Cc1cc(=O)n2c(-c3cncc(OC)c3)c(C)sc2n1)c1ccc(F)cc1 [Example 5.58, 7-[(N-ethyl-4-fluoro-anilino)methyl]-3-(5-methoxy-3-pyridyl)-2-methyl-thiazolo[3,2-a]pyrimidin-5-one]
10 µM	123%	CCN(Cc1cc(=O)n2c(N3CCOCC3)c(C)sc2n1)c1ccc(F)cc1 [Example 6.1, 7-((ethyl(4-fluorophenyl)amino)methyl)-2-methyl-3-morpholino-5H-thiazolo[3,2-a]pyrimidin-5-one]
5 µM	121%	CCN(Cc1cc(=O)n2c(N(C)C)c(C)sc2n1)c1ccc(F)cc1 [Example 6.2, 3-(dimethylamino)-7-((ethyl(4-fluorophenyl)amino)methyl)-2-methyl-5H-thiazolo[3,2-a]pyrimidin-5-one]
10.1 µM	91.9%	CCN(Cc1cc(=O)n2c(N3CCCC3)c(C)sc2n1)c1ccc(F)cc1 [Example 6.3, 7-((ethyl(4-fluorophenyl)amino)methyl)-2-methyl-3-(pyrrolidin-1-yl)-5H-thiazolo[3,2-a]pyrimidin-5-one]
0.853 µM	184%	CCN(Cc1cc(=O)n2c(C#N)c(C)sc2n1)c1ccc(F)c(F)c1 [Example 7.1, 7-(((3,4-difluorophenyl)(ethyl)amino)methyl)-2-methyl-5-oxo-5H-thiazolo[3,2-a]pyrimidine-3-carbonitrile]
0.612 µM	134%	CCN(Cc1cc(=O)n2c(C#N)c(C)sc2n1)c1cccc(F)c1 [Example 7.2, 7-((ethyl(3-fluorophenyl)amino)methyl)-2-methyl-5-oxo-5H-thiazolo[3,2-a]pyrimidine-3-carbonitrile]
0.376 µM	156%	CCN(Cc1cc(=O)n2c(C#N)c(C)sc2n1)c1ccc(F)cc1 [Example 7.3, 7-[(N-ethyl-4-fluoro-anilino)methyl]-2-methyl-5-oxo-thiazolo[3,2-a]pyrimidine-3-carbonitrile]
5.7 µM	166%	CCN(Cc1cc(=O)n2c(C#N)csc2n1)c1ccc(F)cc1 [Example 7.4, 7-[(N-ethyl-4-fluoro-anilino)methyl]-5-oxo-thiazolo[3,2-a]pyrimidine-3-carbonitrile]
2.1 µM	162%	Cc1sc2nc(CN3c4ccc(F)cc4CC3C)cc(=O)n2c1C#N (centres unmarked) [Example 7.5, 7-((5-fluoro-2-methylindolin-1-yl)methyl)-2-methyl-5-oxo-5H-thiazolo[3,2-a]pyrimidine-3-carbonitrile]
3.7 µM	151%	CCN(Cc1cc(=O)n2c(C#N)c(C)sc2n1)c1cccc(C#N)c1 [Example 7.6, 7-(((3-cyanophenyl)(ethyl)amino)methyl)-2-methyl-5-oxo-5H-thiazolo[3,2-a]pyrimidine-3-carbonitrile]
21 µM	148%	CCN(Cc1cc(=O)n2c(C#N)c(C)sc2n1)c1ccccn1 [Example 7.7, 7-((ethyl(pyridin-2-yl)amino)methyl)-2-methyl-5-oxo-5H-thiazolo[3,2-a]pyrimidine-3-carbonitrile]
2.5 µM	126%	Cc1sc2nc(CN3c4ccccc4CC3C)cc(=O)n2c1C#N (centres unmarked) [Example 7.8, 2-methyl-7-((2-methylindolin-1-yl)methyl)-5-oxo-5H-thiazolo[3,2-a]pyrimidine-3-carbonitrile]

EC50	Max %	Structure (SMILES)
1.3 µM	121%	CCN(Cc1cc(=O)n2c(C#N)c(C)sc2n1)c1cc(F)cc(F)c1 [Example 7.9, 7-(((3,5-difluorophenyl)(ethyl)amino)methyl)-2-methyl-5-oxo-5H-thiazolo[3,2-a]pyrimidine-3-carbonitrile]
5.2 µM	146%	CCN(Cc1cc(=O)n2c3c(sc2n1)CCC3)c1ccc(F)cc1 [Example 8.1, 6-[(N-ethyl-4-fluoro-anilino)methyl]-2,3-dihydro-1H-cyclopenta[3,4]thiazolo[1,4-a]pyrimidin-8-one]
7.2 µM	122%	CCN(Cc1cc(=O)n2c3c(sc2n1)CCCC3)c1ccc(F)cc1 [Example 8.2, 2-[(N-ethyl-4-fluoro-anilino)methyl]-6,7,8,9-tetrahydropyrimido[2,1-b][1,3]benzothiazol-4-one]
16.9 µM	114%	CCN(Cc1cc(=O)n2c3c(sc2n1)CCC3CO)c1ccc(F)cc1 (centres unmarked) [Example 8.5, 6-[(N-ethyl-4-fluoro-anilino)methyl]-1-(hydroxymethyl)-2,3-dihydro-1H-cyclopenta[3,4]thiazolo[1,4-a]pyrimidin-8-one]
	60.5%	CCN(Cc1cc(=O)n2c3c(sc2n1)CCC31CCCC1)c1ccc(F)cc1 [Example 8.6, 6-[(N-ethyl-4-fluoro-anilino)methyl]spiro[2,3-dihydrocyclopenta[3,4]thiazolo[1,4-a]pyrimidine-1,1′-cyclopentane]-8-one]
	81.4%	CCN(Cc1cc(=O)n2c3c(sc2n1)CCC3=O)c1ccc(F)cc1 [Example 8.7, 6-[(N-ethyl-4-fluoro-anilino)methyl]-2,3-dihydrocyclopenta[3,4]thiazolo[1,4-a]pyrimidine-1,8-dione]
8.7 µM	108%	CCN(Cc1cc(=O)n2c3c(sc2n1)CCC3(C)C)c1ccc(F)cc1 [Example 8.8, 6-[(N-ethyl-4-fluoro-anilino)methyl]-1,1-dimethyl-2,3-dihydrocyclopenta[3,4]thiazolo[1,4-a]pyrimidin-8-one]
11.1 µM	124%	CCN(Cc1cc(=O)n2c3c(sc2n1)CCOC3)c1ccc(F)cc1 [Example 8.9, 2-[(N-ethyl-4-fluoro-anilino)methyl]-8,9-dihydro-6H-pyrano[3,4]thiazolo[1,4-a]pyrimidin-4-one]
12.5 µM	127%	CCN(Cc1cc(=O)n2c3c(sc2n1)CCN(C)C3)c1ccc(F)cc1 [Example 8.10, 2-[(N-ethyl-4-fluoro-anilino)methyl]-7-methyl-8,9-dihydro-6H-pyrido[3,4]thiazolo[1,4-a]pyrimidin-4-one]
2.7 µM	154%	CCN(Cc1cc(=O)n2c3c(sc2n1)CCC3C(N)=O)c1ccc(F)cc1 (centres unmarked) [Example 8.11, 6-[(N-ethyl-4-fluoro-anilino)methyl]-8-oxo-2,3-dihydro-1H-cyclopenta[3,4]thiazolo[1,4-a]pyrimidine-1-carboxamide]
0.385 µM	161%	CCN(Cc1cc(=O)n2c3c(sc2n1)CCC3C#N)c1ccc(F)cc1 (centres unmarked) [Example 8.12, 6-[(N-ethyl-4-fluoro-anilino)methyl]-8-oxo-2,3-dihydro-1H-cyclopenta[3,4]thiazolo[1,4-a]pyrimidine-1-carbonitrile]
2.2 µM	162%	CCN(Cc1cc(=O)n2c3c(sc2n1)CCC3CC#N)c1ccc(F)cc1 (centres unmarked) [Example 8.13, 2-[6-[(N-ethyl-4-fluoro-anilino)methyl]-8-oxo-2,3-dihydro-1H-cyclopenta[3,4]thiazolo[1,4-a]pyrimidin-1-yl]acetonitrile]
1.1 µM	154%	CCN(Cc1cc(=O)n2c3c(sc2n1)CCC3CCO)c1ccc(F)cc1 (centres unmarked) [Example 8.14, 6-[(N-ethyl-4-fluoro-anilino)methyl]-1-(2-hydroxyethyl)-2,3-dihydro-1H-cyclopenta[3,4]thiazolo[1,4-a]pyrimidin-8-one]
2.3 µM	138%	CCN(Cc1cc(=O)n2c3c(sc2n1)CCC3COC)c1ccc(F)cc1 (centres unmarked) [Example 8.15, 2-((ethyl(4-fluorophenyl)amino)methyl)-6-(methoxymethyl)-7,8-dihydrocyclopenta[4,5]thiazolo[3,2-a]pyrimidin-4(6H)-one]
13 µM	137%	CCN(Cc1cc(=O)n2c3c(sc2n1)CCC3CC(N)=O)c1ccc(F)cc1 (centres unmarked) [Example 8.16, 2-[6-[(N-ethyl-4-fluoro-anilino)methyl]-8-oxo-2,3-dihydro-1H-cyclopenta[3,4]thiazolo[1,4-a]pyrimidin-1-yl]acetamide]
	48.1%	CCN(Cc1cc(=O)n2c(C3CCCCC3)c(C)sc2n1)c1ccc(F)cc1 [Example 9.1, 3-cyclohexyl-7-[[ethyl(4-fluorophenyl)amino]methyl]-2-methyl-5H-[1,3]thiazolo[3,2-a]pyrimidin-5-one]
